Assay [1] addresses T1, Axl (Homo sapiens (Human), UniProt P30530). Briefly: Axl binding assay. As for the experimental part: Binding of the tracer to the kinase is detected using an EU-labeled anti-tag antibody. […] Binding of an inhibitor to the kinase competes for binding with the tracer, resulting in a loss of FRET-signal. At first a compound according to formula (I) was diluted in 20 mM Hepes pH 8.0, 1 mM DTT, 10 mM MgCl2 and 0.01% Brij35.

Assay [2] addresses T1, Axl. Briefly: Cellular Axl phosphorylation assay. The note with it: HEK293 cells transfected with Axl cDNA, 1 hour incubation. It counts as cell-based. Here is the method: 3. Cellular Axl Phosphorylation Assay:
HEK293 embryonal kidney fibroblasts were transfected in 96 wells with a plasmid containing Axl cDNA. As transfection reagent Superfect (Qiagen) was used. Transfection of the sole vector backbone served as negative control of Axl expression. After overnight incubation the cellular supernatant was replaced with fresh medium. On the following day the Axl-expressing cells were incubated for 1 hour with a compound according to formula (I) at the suitable concentrations. […] The mesoscale technology was used for quantification.

The values below come from patent US8999982B2, “Pharmaceutically active compounds as Axl inhibitors” (Lead Discovery Center GmbH, priority 2010, dated 2015).

T1 sequence (P30530 26-894): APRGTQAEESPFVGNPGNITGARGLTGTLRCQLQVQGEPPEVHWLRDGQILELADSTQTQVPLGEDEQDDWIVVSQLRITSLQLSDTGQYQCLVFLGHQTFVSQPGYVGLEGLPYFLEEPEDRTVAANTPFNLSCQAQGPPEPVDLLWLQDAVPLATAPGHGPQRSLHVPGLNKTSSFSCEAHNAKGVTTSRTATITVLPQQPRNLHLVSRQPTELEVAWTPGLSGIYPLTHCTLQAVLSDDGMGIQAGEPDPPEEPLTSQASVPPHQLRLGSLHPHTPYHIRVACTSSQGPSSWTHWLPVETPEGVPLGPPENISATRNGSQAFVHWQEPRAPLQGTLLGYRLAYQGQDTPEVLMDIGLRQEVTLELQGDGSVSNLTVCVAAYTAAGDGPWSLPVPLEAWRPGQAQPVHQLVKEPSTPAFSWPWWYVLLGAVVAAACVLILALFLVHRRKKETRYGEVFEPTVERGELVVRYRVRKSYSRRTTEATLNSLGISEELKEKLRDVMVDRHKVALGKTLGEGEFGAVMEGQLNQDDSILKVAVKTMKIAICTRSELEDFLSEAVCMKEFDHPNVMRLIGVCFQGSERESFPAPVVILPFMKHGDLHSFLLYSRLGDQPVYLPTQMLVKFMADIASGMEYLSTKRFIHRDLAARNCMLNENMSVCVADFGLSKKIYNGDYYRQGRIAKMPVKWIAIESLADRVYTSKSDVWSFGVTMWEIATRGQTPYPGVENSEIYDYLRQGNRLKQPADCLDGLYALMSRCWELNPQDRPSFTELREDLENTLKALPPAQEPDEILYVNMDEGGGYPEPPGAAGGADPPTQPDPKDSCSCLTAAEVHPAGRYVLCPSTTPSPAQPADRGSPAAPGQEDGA

On to `CCOc1cn(-c2cccc([N+](=O)[O-])c2)nc1C(=O)Nc1ccc(Oc2ccnc3cc(OC)c(OC)cc23)cn1` [Example 92, N-(5-((6,7-dimethoxyquinolin-4-yl)oxy)pyridin-2-yl)-4-ethoxy-1-(3-nitrophenyl)-1H-pyrazole-3-carboxamide], for which the IC50 on Axl [1] and against Axl [2] was below 500 nM in each case.

On to `CCOc1cn(-c2ccc(F)cc2)nc1C(=O)Nc1ccc(Oc2ccnc3cc(OC)c(OC)cc23)cc1` [Example 24, N-[4-[(6,7-dimethoxy-4-quinolyl)oxy]phenyl]-4-ethoxy-1-(4-fluorophenyl)pyrazole-3-carboxamide], for which the IC50 at Axl [1] and on Axl [2] was below 500 nM throughout.

On to `COc1cc2c(Oc3ccc(NC(=O)c4nn(-c5ccc(F)cc5)cc4OCC4CC4)cc3F)ccnc2cc1OCCCN1CCN(C)CC1` [Example 61, 4-(cyclopropylmethoxy)-N-[3-fluoro-4-[[6-methoxy-7-[3-(4-methylpiperazin-1-yl)propoxy]-4-quinolyl]oxy]phenyl]-1-(4-fluorophenyl)pyrazole-3-carboxamide], for which the IC50 on Axl [1] and against Axl [2] was below 500 nM each time.

As to `COc1cc2c(Oc3ccc(NC(=O)c4nn(-c5ccc(F)cc5)cc4OCc4ccccc4)cc3F)ccnc2cc1OCCCN1CCOCC1` [Example 51, 4-benzyloxy-N-[3-fluoro-4-[[6-methoxy-7-(3-morpholinopropoxy)-4-quinolyl]oxy]phenyl]-1-(4-fluorophenyl)pyrazole-3-carboxamide], the IC50 at Axl [1] and on Axl [2] was below 500 nM throughout.

Consider `CCOc1cn(-c2ccc(F)cc2C)nc1C(=O)Nc1ccc(Oc2ccnc3cc(OCCCN)c(OC)cc23)c(F)c1` [Example 55, N-[4-[[7-(3-aminopropoxy)-6-methoxy-4-quinolyl]oxy]-3-fluoro-phenyl]-4-ethoxy-1-(4-fluoro-2-methyl-phenyl)pyrazole-3-carboxamide], for which the IC50 at Axl [1] and at Axl [2] was below 500 nM each time.

As for `COc1cc2nccc(Oc3ccc(NC(=O)c4nn(-c5ccc(F)cc5)cc4OCCCN(C)C)cc3F)c2cc1OC` [Example 20, N-[4-[(6,7-dimethoxy-4-quinolyl)oxy]-3-fluoro-phenyl]-4-(3-dimethylaminopropoxy)-1-(4-fluorophenyl)pyrazole-3-carboxamide], the IC50 on Axl [1] and against Axl [2] was 500 to 5000 nM each time.

Take `COc1cc2c(Oc3ccc(NC(=O)c4cc(C)n(C(C)(C)C)n4)cc3F)ccnc2cc1OCC1CCNCC1` [Example 78, 1-tert-butyl-N-[3-fluoro-4-[[6-methoxy-7-(4-piperidylmethoxy)-4-quinolyl]oxy]phenyl]-5-methyl-pyrazole-3-carboxamide]: the IC50 at Axl [1] and at Axl [2] was below 500 nM each time.

As for `COc1cc2nccc(Oc3ccc(NC(=O)c4ccn(C)n4)cc3F)c2cc1OC` [Example 4, N-[4-[(6,7-dimethoxy-4-quinolyl)oxy]-3-fluoro-phenyl]-1-methyl-pyrazole-3-carboxamide], the IC50 at Axl [1] and at Axl [2] was 500 to 5000 nM in each case.

Turning to `COc1cc2c(Oc3ccc(NC(=O)c4ccn(C)n4)cc3F)ccnc2cc1OCCCN1CCOCC1` [Example 40, N-[3-fluoro-4-[[6-methoxy-7-(3-morpholinopropoxy)-4-quinolyl]oxy]phenyl]-1-methyl-pyrazole-3-carboxamide], the IC50 (commonly the concentration needed to halve the response being measured) on Axl [1] was 500 to 5000 nM; against Axl [2] it was below 500 nM.

Take `CCOc1cn(-c2ccc(F)cc2Cl)nc1C(=O)Nc1ccc(Oc2ccnc3cc(OCCCN4CCN(C)CC4)c(OC)cc23)c(F)c1` [Example 60, 1-(2-chloro-4-fluoro-phenyl)-4-ethoxy-N-[3-fluoro-4-[[6-methoxy-7-[3-(4-methylpiperazin-1-yl)propoxy]-4-quinolyl]oxy]phenyl]pyrazole-3-carboxamide]: the IC50 on Axl [1] and against Axl [2] was below 500 nM in each case.

In the case of `CCCn1ccc(C(=O)Nc2ccc(Oc3ccnc4cc(OC)c(OC)cc34)c(F)c2)n1` [Example 13, N-[4-[(6,7-dimethoxy-4-quinolyl)oxy]-3-fluoro-phenyl]-1-propyl-pyrazole-3-carboxamide], the figures for the IC50 on Axl [1] and against Axl [2] were 500 to 5000 nM and below 500 nM, respectively.

On to `CCOc1cn(-c2ccc(F)cc2Cl)nc1C(=O)Nc1ccc(Oc2ccnc3cc(OCCCN4CCNCC4)c(OC)cc23)c(F)c1` [Example 68, 1-(2-chloro-4-fluoro-phenyl)-4-ethoxy-N-[3-fluoro-4-[[6-methoxy-7-(3-piperazin-1-ylpropoxy)-4-quinolyl]oxy]phenyl]pyrazole-3-carboxamide], for which the IC50 on Axl [1] and against Axl [2] was below 500 nM in each case.

Take `COc1cc2c(Oc3ccc(NC(=O)c4csc(-c5ccccc5)n4)cc3F)ccnc2cc1OCCCN1CCNCC1` [Example 72, N-[3-fluoro-4-[[6-methoxy-7-(3-piperazin-1-ylpropoxy)-4-quinolyl]oxy]phenyl]-2-phenyl-thiazole-4-carboxamide]: the IC50 at Axl [1] and at Axl [2] was below 500 nM each time.

On to `COc1cc2nccc(Oc3ccc(NC(=O)c4ccn(COCC(F)(F)F)n4)cc3F)c2cc1OC` [Example 15, N-[4-[(6,7-dimethoxy-4-quinolyl)oxy]-3-fluoro-phenyl]-1-(2,2,2-trifluoroethoxymethyl)pyrazole-3-carboxamide], for which the figures for the IC50 at Axl [1] and at Axl [2] were 500 to 5000 nM and below 500 nM, respectively.

On to `COc1cc2c(Oc3ccc(NC(=O)c4nn(C)cc4Br)cc3F)ccnc2cc1OCCCN1CCOCC1` [Example 39, 4-bromo-N-[3-fluoro-4-[[6-methoxy-7-(3-morpholinopropoxy)-4-quinolyl]oxy]phenyl]-1-methyl-pyrazole-3-carboxamide], for which the IC50 on Axl [1] is 500 to 5000 nM; on Axl [2], below 500 nM.

`COc1cc2nccc(Oc3ccc(NC(=O)c4cc(C)n(C)n4)cc3F)c2cc1OC` [Example 1, N-[4-[(6,7-dimethoxy-4-quinolyl)oxy]-3-fluoro-phenyl]-1,5-dimethyl-pyrazole-3-carboxamide]: the IC50 at Axl [1] and on Axl [2] was 500 to 5000 nM in each case.

For the compound `COc1cc2nccc(Oc3ccc(NC(=O)c4nn(-c5ccc(F)cc5)cc4OC(C)C)cc3Cl)c2cc1OC` [Example 33, N-[3-chloro-4-[(6,7-dimethoxy-4-quinolyl)oxy]phenyl]-1-(4-fluorophenyl)-4-isopropoxy-pyrazole-3-carboxamide], the IC50 at Axl [1] and against Axl [2] was below 500 nM each time.

As for `CCOc1cn(-c2ccc(F)cc2C)nc1C(=O)Nc1ccc(Oc2ccnc3cc(OC)c(OC)cc23)c(C)c1` [Example 31, N-[4-[(6,7-dimethoxy-4-quinolyl)oxy]-3-methyl-phenyl]-4-ethoxy-1-(4-fluoro-2-methyl-phenyl)pyrazole-3-carboxamide], the IC50 on Axl [1] and on Axl [2] was below 500 nM throughout.

`COc1cc2c(Oc3ccc(NC(=O)c4nn(-c5ccc(F)cc5)cc4OC(C)C)cc3F)ccnc2cc1OCCCN1CCOCC1` [Example 45, N-[3-fluoro-4-[[6-methoxy-7-(3-morpholinopropoxy)-4-quinolyl]oxy]phenyl]-1-(4-fluorophenyl)-4-isopropoxy-pyrazole-3-carboxamide]: the IC50 on Axl [1] and at Axl [2] was below 500 nM in each case.

`CCOc1cn(-c2ccc(F)cc2C)nc1C(=O)Nc1ccc(Oc2ccnc3cc(OC)c(OC)cc23)cc1` [Example 27, N-[4-[(6,7-dimethoxy-4-quinolyl)oxy]phenyl]-4-ethoxy-1-(4-fluoro-2-methyl-phenyl)pyrazole-3-carboxamide]: the IC50 at Axl [1] and against Axl [2] was below 500 nM throughout.

For the compound `CCOc1cn(-c2ccc(N)cc2)nc1C(=O)Nc1ccc(Oc2ccnc3cc(OC)c(OC)cc23)cn1` [Example 99, 1-(4-aminophenyl)-N-(5-((6,7-dimethoxyquinolin-4-yl)oxy)pyridin-2-yl)-4-ethoxy-1H-pyrazole-3-carboxamide], the IC50 at Axl [1] and at Axl [2] was below 500 nM throughout.

For the compound `COc1cc2nccc(Oc3ccc(NC(=O)c4nn(C)cc4Br)cc3F)c2cc1OC` [Example 3, 4-bromo-N-[4-[(6,7-dimethoxy-4-quinolyl)oxy]-3-fluoro-phenyl]-1-methyl-pyrazole-3-carboxamide], the IC50 at Axl [1] and against Axl [2] was 500 to 5000 nM in each case.

For the compound `CCOc1cn(-c2ccc(F)cc2C)nc1C(=O)Nc1ccc(Oc2ccnc3cc(OC)c(OC)cc23)cn1` [Example 85, N-[5-[(6,7-dimethoxy-4-quinolyl)oxy]-2-pyridyl]-4-ethoxy-1-(4-fluoro-2-methyl-phenyl)pyrazole-3-carboxamide], the IC50 at Axl [1] and against Axl [2] was below 500 nM throughout.

With `COc1cc2c(Oc3ccc(NC(=O)c4nn(-c5ccc(F)cc5)cc4OC(C)C)cc3F)ccnc2cc1OCCCN1CCN(C)CC1` [Example 62, N-[3-fluoro-4-[[6-methoxy-7-[3-(4-methylpiperazin-1-yl)propoxy]-4-quinolyl]oxy]phenyl]-1-(4-fluorophenyl)-4-isopropoxy-pyrazole-3-carboxamide], the IC50 on Axl [1] and on Axl [2] was below 500 nM in each case.

Consider `CCOc1cn(-c2ccc(F)cc2Cl)nc1C(=O)Nc1ccc(Oc2ccnc3cc(OC)c(OC)cc23)c(F)c1` [Example 23, 1-(2-chloro-4-fluoro-phenyl)-N-[4-[(6,7-dimethoxy-4-quinolyl)oxy]-3-fluoro-phenyl]-4-ethoxy-pyrazole-3-carboxamide], for which the IC50 at Axl [1] and at Axl [2] was below 500 nM each time.

With `COc1cc2nccc(Oc3ccc(NC(=O)c4cc(C)n(C(C)(C)C)n4)cc3F)c2cc1OC` [Example 5, 1-tert-butyl-N-[4-[(6,7-dimethoxy-4-quinolyl)oxy]-3-fluoro-phenyl]-5-methyl-pyrazole-3-carboxamide], the IC50 at Axl [1] and at Axl [2] was below 500 nM throughout.
